From US10894784B2, “Heteroarylbenzimidazole compounds” (BAYER PHARMA AKTIENGESELLSCHAFT, priority 2015, dated 2021)
Read-outs that look alike come from different tables or passages of the source.

Biological target: TBK1 (Homo sapiens (Human), UniProt Q9UHD2)
Assay: TBK1 low ATP kinase assay (in vitro assay 1)
Format: biochemical
[1] = in vitro assay 1, read-out: TBK1 low ATP kinase assay IC50
[2] = TBK1 low ATP kinase assay IC50, in vitro assay 1

Chain of TBK1 (Q9UHD2 whole entry): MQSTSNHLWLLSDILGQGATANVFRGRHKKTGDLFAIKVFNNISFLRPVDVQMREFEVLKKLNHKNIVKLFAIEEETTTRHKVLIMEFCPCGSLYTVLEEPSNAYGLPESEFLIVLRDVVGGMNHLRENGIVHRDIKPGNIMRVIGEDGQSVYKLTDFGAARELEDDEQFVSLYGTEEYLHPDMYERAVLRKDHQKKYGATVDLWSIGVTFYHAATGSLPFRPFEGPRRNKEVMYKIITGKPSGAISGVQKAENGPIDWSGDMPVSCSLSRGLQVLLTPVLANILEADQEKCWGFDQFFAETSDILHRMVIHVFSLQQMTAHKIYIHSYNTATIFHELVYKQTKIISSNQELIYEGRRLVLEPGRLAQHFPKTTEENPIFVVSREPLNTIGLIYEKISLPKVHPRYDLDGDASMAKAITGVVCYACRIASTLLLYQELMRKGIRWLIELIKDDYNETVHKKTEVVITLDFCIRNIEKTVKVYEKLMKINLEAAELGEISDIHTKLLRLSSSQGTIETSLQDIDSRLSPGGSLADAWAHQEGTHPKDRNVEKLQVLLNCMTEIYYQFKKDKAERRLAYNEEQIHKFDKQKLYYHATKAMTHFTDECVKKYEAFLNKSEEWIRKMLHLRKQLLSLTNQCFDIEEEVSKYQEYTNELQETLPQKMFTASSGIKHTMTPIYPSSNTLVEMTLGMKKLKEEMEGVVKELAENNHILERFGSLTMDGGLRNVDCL

Row | IC50 [1] [nM] | IC50 [2] [nM] | SMILES
1 | 12.1 |  | Cc1cc(-c2ccc3nc(Nc4cc(C(C)N5CCN(C(=O)CC(F)(F)F)CC5)ccn4)[nH]c3c2F)ncn1 (single isomer, unassigned) [Example 172.02, 3,3,3-trifluoro-1-{4-[(1R or 1S)-1-(2-{[7-fluoro-6-(6-methylpyrimidin-4-yl)-1H-benzimidazol-2-yl]amino}pyridin-4-yl)ethyl)piperazin-1-yl}propan-1-one]
2 | 15 |  | CNc1cc(-c2ccc3nc(Nc4cc(CN5CCN(C(=O)OC(C)(C)C)CC5)ccn4)[nH]c3c2)ncn1 [Example 150.01, tert-butyl 4-{[2-({6-[6-(methylamino)pyrimidin-4-yl]-1H-benzimidazol-2-yl}amino)pyridin-4-yl]methyl}piperazine-1-carboxylate]
3 |  | 105 | Cc1noc(-c2ccc3nc(Nc4cc(C(C)N5CCN(C(=O)CC(F)(F)F)CC5)ccn4)[nH]c3c2)n1 (single isomer, unassigned) [Example 16.06.02.A, 3,3,3-trifluoro-1-{4-[(1R or 1S)-1-(2-{[6-(3-methyl-1,2,4-oxadiazol-5-yl)-1H-benzimidazol-2-yl]amino}pyridin-4-yl)ethyl]piperazin-1-yl}propan-1-one]
4 |  | 1.8 | CC(c1ccnc(Nc2nc3ccc(-c4cc(OCC5CC5)ncn4)cc3[nH]2)c1)N1CCN(C(=O)CC(F)(F)F)CC1 (single isomer, unassigned) [Example 85.03, 1-(4-{(1R or 1S)-1-[2-({6-[6-(cyclopropylmethoxy)pyrimidin-4-yl]-1H-benzimidazol-2-yl}amino)pyridin-4-yl]ethyl}piperazin-1-yl)-3,3,3-trifluoropropan-1-one]
5 | 43 |  | CN(CC1CC1)c1cc(-c2ccc3nc(Nc4cc(CN5CCN(C(=O)OC(C)(C)C)CC5)ccn4)[nH]c3c2)ncn1 [Example 141.01, tert-butyl 4-({2-[(6-{6-[(cyclopropylmethyl)(methyl)amino]pyrimidin-4-yl}-1H-benzimidazol-2-yl)amino]pyridin-4-yl}methyl)piperazin-1-carboxylate]
6 | 36.9 |  | CCn1cc(-c2ccc3nc(Nc4cc(CN5CCN(C(=O)C6CC6)CC5)ccn4)[nH]c3c2OCC(C)C)cn1 [Example 52.02, cyclopropyl{4-[(2-{[6-(1-ethyl-1H-pyrazol-4-yl)-7-(2-methylpropoxy)-1H-benzimidazol-2-yl]amino}pyridin-4-yl)methyl]piperazin-1-yl}methanone]
7 | 35 |  | CCOc1ncnc(-c2ccc3nc(Nc4cc(CN5CCN(C(=O)CC(F)(F)F)CC5)ccn4)[nH]c3c2)c1OC [Example 167.02, 1-{4-[(2-{[6-(6-ethoxy-5-methoxypyrimidin-4-yl)-1H-benzimidazol-2-yl]amino}pyridin-4-yl)methyl]piperazin-1-yl}-3,3,3-trifluoropropan-1-one]
8 | 5190 |  | CC(=O)N1CCN(Cc2ccnc(Nc3nc4ccc(-c5ncnc(C)c5C)cc4[nH]3)c2)CC1 [Example 32.03, 1-{4-[(2-{[6-(5,6-dimethylpyrimidin-4-yl)-1H-benzimidazol-2-yl]amino}pyridin-4-yl)methyl]piperazin-1-yl}ethanone]
9 | 250 |  | Cc1nccc(-c2ccc3nc(Nc4cc(CN5CCN(C(=O)C6CC6)CC5)ccn4)[nH]c3c2)c1Cl [Example 130.03, {4-[(2-{[6-(3-chloro-2-methylpyridin-4-yl)-1H-benzimidazol-2-yl]amino}pyridin-4-yl)methyl]piperazin-1-yl}(cyclopropyl)methanone]
10 | 0.49 |  | CC(c1ccnc(Nc2nc3ccc(-c4cc(N5CCCC5)ncn4)cc3[nH]2)c1)N1CCN(C(=O)CC(F)(F)F)CC1 (single isomer, unassigned) [Example 117.03, 3,3,3-trifluoro-1-(4-{(1R or 1S)-1-[2-({6-[6-(pyrrolidin-1-yl)pyrimidin-4-yl]-1H-benzimidazol-2-yl}amino)pyridin-4-yl]ethyl}piperazin-1-yl)propan-1-one]
11 | 339 |  | COc1ncccc1-c1ccc2nc(Nc3cc(CN4CCN(C(=O)CC(F)(F)F)CC4)ccn3)[nH]c2c1 [Example 15.01, 3,3,3-trifluoro-1-{4-[(2-{[6-(2-methoxypyridin-3-yl)-1H-benzimidazol-2-yl]amino}pyridin-4-yl)methyl]piperazin-1-yl}propan-1-one]
12 | 164 |  | O=C(C1CC1)N1CCN(Cc2ccnc(Nc3nc4ccc(-c5ccnc(C(F)(F)F)n5)cc4[nH]3)c2)CC1 [Example 27.01, cyclopropyl(4-{[2-({6-[2-(trifluoromethyl)pyrimidin-4-yl]-1H-benzimidazol-2-yl}amino)pyridin-4-yl]methyl}piperazin-1-yl)methanone]
13 | 1020 |  | CSc1ncc(-c2ccc3nc(Nc4cc(CN5CCN(C(=O)CC6CC6)CC5)ccn4)[nH]c3c2)cn1 [Example 45.05.02, 2-cyclopropyl-1-(4-{[2-({6-[2-(methylsulfanyl)pyrimidin-5-yl]-1H-benzimidazol-2-yl}amino)pyridin-4-yl]methyl}piperazin-1-yl)ethanone]
14 | 333 |  | COc1cnccc1-c1ccc2nc(Nc3cc(CN4CCN(C(=O)C5CC5)CC4)ccn3)[nH]c2c1OCC(C)C [Example 50.02, cyclopropyl{4-[(2-{[6-(3-methoxypyridin-4-yl)-7-(2-methylpropoxy)-1H-benzimidazol-2-yl]amino}pyridin-4-yl)methyl]piperazin-1-yl}methanone]
15 | 2.4 |  | COc1c(NCC2CC2)ncnc1-c1ccc2nc(Nc3cc(C(C)N4CCN(C(=O)CC(F)(F)F)CC4)ccn3)[nH]c2c1 (single isomer, unassigned) [Example 109.02.03, 1-{4-[(1R or 1S)-1-{2-[(6-{6-[(cyclopropylmethyl)amino]-5-methoxypyrimidin-4-yl}-1H-benzimidazol-2-yl)amino]pyridin-4-yl}ethyl]piperazin-1-yl}-3,3,3-trifluoropropan-1-one]
16 | 45.4 |  | Cc1nccc(-c2ccc3nc(Nc4cc(C(C)N5CCN(C(=O)CC6CC6)CC5)ccn4)[nH]c3c2)n1 (single isomer, unassigned) [Example 24.05.03.A, 2-cyclopropyl-1-{4-[(1R or 1S)-1-(2-{[6-(2-methylpyrimidin-4-yl)-1H-benzimidazol-2-yl]amino}pyridin-4-yl)ethyl]piperazin-1-yl}ethanone]
17 | 1.3 |  | COc1c(-c2ccc3nc(Nc4cc(C(C)N5CCN(C(=O)C6CC6)CC5)ccn4)[nH]c3c2)ncnc1N1CCCC1 (single isomer, unassigned) [Example 112.02, cyclopropyl(4-{(1R or 1S)-1-[2-({6-[5-methoxy-6-(pyrrolidin-1-yl)pyrimidin-4-yl]-1H-benzimidazol-2-yl}amino)pyridin-4-yl]ethyl}piperazin-1-yl)methanone]
18 | 61.3 |  | O=C(C1CCC1)N1CCN(Cc2ccnc(Nc3nc4ccc(-c5nc(C6CC6)no5)cc4[nH]3)c2)CC1 [Example 17.06, cyclobutyl{4-[(2-{[6-(3-cyclopropyl-1,2,4-oxadiazol-5-yl)-1H-benzimidazol-2-yl]amino}pyridin-4-yl)methyl]piperazin-1-yl}methanone]
19 | 18 |  | CN(C)c1cc(-c2ccc3nc(Nc4cc(CN5CCN(C(=O)OC(C)(C)C)CC5)ccn4)[nH]c3c2)ncn1 [Example 143.01, tert-butyl 4-{[2-({6-[6-(dimethylamino)pyrimidin-4-yl]-1H-benzimidazol-2-yl}amino)pyridin-4-yl]methyl}piperazine-1-carboxylate]
